Source: patent US12624018B1, “Inhibitors of RIPK2 and medical uses thereof” (Odyssey Therapeutics, Inc., priority 2022, dated 2026)
pIC50: −log10 of the molar value. Like-named read-outs stand apart in the source and are kept apart here.

Columns and labels:
[1] = biological target: T1, RIPK2 and XIAP protein-protein interaction (Homo sapiens, UniProt O43353); test: Inhibition of the interaction of RIPK2 with XIAP (NanoBRET in HEK293T cells); type: cell-based; conditions: for pIC50: RIPK2 HaloTag / XIAP NanoLuc, read-out: NanoBRET Scaffolding IC50
T1 construct: the N-terminus of full-length RIPK2 was appended with the HaloTag fusion protein; expressed in transfected cells; host or cells: HEK293T
T1 sequence (O43353 whole entry, the tested form may be a part): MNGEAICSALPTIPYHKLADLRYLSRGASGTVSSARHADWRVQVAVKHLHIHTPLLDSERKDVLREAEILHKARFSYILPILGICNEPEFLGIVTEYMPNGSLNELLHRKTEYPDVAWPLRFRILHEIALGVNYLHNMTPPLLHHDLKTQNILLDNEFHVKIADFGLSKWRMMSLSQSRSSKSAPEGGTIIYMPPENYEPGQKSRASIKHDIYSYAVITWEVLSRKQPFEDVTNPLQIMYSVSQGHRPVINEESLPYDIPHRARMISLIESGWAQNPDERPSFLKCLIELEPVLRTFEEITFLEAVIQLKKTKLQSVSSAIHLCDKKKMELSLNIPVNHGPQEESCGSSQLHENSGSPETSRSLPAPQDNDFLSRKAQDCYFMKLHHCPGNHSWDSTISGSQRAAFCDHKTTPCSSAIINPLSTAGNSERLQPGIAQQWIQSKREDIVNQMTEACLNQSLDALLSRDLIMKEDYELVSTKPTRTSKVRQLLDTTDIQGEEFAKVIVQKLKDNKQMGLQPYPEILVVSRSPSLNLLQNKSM
Source text: An assay measuring the RIPK2 and XIAP protein-protein interaction was generated using the NanoBRET protein:protein interaction system (Promega) which measures the energy transfer from a bioluminescent protein donor (NanoLuc fusion protein) to a fluorescent protein acceptor (Halotag fusion protein). In this assay, the C-terminus of full-length XIAP was appended with the NanoLuc fusion protein and the N-terminus of full-length RIPK2 was appended with the HaloTag fusion protein. Assay medium consisted of Opti-MEM I reduced serum medium with no phenol red plus 4% heat inactivated FBS. Transfection reagents were combined in a microfuge tube as follows: 400 μL of assay medium, 8 μL of vector with N-terminus of RIPK2 HaloTag fusion protein (vector concentration at 1 μg/μL), 0.8 μL of vector with C-terminus of XIAP NanoLuc fusion protein (vector concentration at 1 μg/μL), and 24 μL of FuGENE HD transfection reagent (Promega, catalogue number E2312). […] Test compounds were prepared into a 10 mM DMSO solution and were serially diluted into 10 points using a 3-fold dilution in a 384 well plate using a TECAN EV0200.
Method: HEK293T cells were transfected with the RIPK2 HaloTag fusion and XIAP NanoLuc fusion vectors in suspension. […] Transfection reagents were pre-mixed and incubated at room temperature for 30 minutes. Then the total transfection reagent mixture was added dropwise to the 16 mL cell suspension and mixed gently. 40 μL of the cells and transfection reagent suspension was plated into a white 384 well plate and incubated at 37° C. in a CO2 incubator for 24 hours. […] Lastly, a 3× solution of NanoBRET Nano-Glo substrate in Opti-MEM I reduced serum media (no phenol red; 20 μL total volume) was added to each well and incubated for 2-3 minutes at room temperature. The plate was then measured using 460 nm filter (donor emission) and 618 nm filter (acceptor emission) in an EnVision multimode plate reader (PerkinElmer). The NanoBRET ratio values were determined by dividing the acceptor emission value by the donor emission value for each sample.

RIPK2 enzyme = biological target: T2, RIPK2 enzyme (Homo sapiens, UniProt O43353); test: RIPK2 inhibition (ADP-Glo Kinase Assay); type: biochemical; conditions: RIPK2 5 nM, ATP 150 μM, MBP substrate, read-out: RIPK2 IC50
T2 construct: purchased Carna 09-128
T2 sequence (O43353 1-299 limits assumed): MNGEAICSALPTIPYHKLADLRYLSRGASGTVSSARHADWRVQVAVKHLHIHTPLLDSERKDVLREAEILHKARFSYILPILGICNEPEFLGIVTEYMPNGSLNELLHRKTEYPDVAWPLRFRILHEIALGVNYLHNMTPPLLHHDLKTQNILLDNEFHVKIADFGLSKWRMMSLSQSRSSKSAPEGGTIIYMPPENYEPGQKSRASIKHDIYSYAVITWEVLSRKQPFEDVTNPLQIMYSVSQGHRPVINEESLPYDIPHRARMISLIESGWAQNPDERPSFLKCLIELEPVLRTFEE
In short: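 Swine MBP substrate; compound and 5 nM RIPK2 first mixed for 30 min at room temperature; buffer pH 7.5 HEPES 50 mM with 10 mM MgCl2, 2 mM DTT, 1 mM EGTA, Brij-35, BSA.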

human NOD2 signaling = test: Inhibition of human NOD2 signaling in HEK-Blue-hNOD2 cells (L18-MDP stimulated, SEAP reporter); type: cell-based
In short: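 Read-out is SEAP absorbance at 620 nm after 3 h QUANTI-Blue development of supernatant from HEK293 cells carrying NOD2 and a SEAP reporter (12500/well). Cells got compound (10 points, 3-fold dilutions) and 0.5 ng/mL L18-MDP for 24 h at 37 °C; percent inhibition vs stimulated/unstimulated controls, 4-parameter IC50.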

[2] = Homo sapiens, HEK-Blue hNOD2, HEK-Blue-hNOD2 cells, NOD2 ligand stimulation, SEAP reporter, read-out: hNOD2 IC50

SMILES: Cc1cc(CC(=O)Nc2cnn(C(C)(C)C)c2)c(F)cc1Oc1ccnc2ccc(S(=N)(=O)C3CC3)cc12 (single isomer, unassigned) [Compound 466, N-(1-(tert-butyl)-1H-pyrazol-4-yl)-2-(4-((6-(cyclopropane-sulfonimidoyl)quinolin-4-yl)oxy)-2-fluoro-5-methylphenyl) acetamide]
- pIC50 [1]: 7.32
- pIC50 (RIPK2 enzyme): > 8.60
- pIC50 (human NOD2 signaling; [2]): 8.60

SMILES: Cc1cc(CC(=O)Nc2cnn(C(C)(C)C)c2)c(F)cc1Oc1ccnc2ccc(S(=N)(=O)C3CC3)cc12 (single isomer, unassigned) [Compound 467, N-(1-(tert-butyl)-1H-pyrazol-4-yl)-2-(4-((6-(cyclopropane-sulfonimidoyl)quinolin-4-yl)oxy)-2-fluoro-5-methylphenyl) acetamide]
- pIC50 [1]: 7.52
- pIC50 (RIPK2 enzyme): > 8.60
- pIC50 (human NOD2 signaling; HEK-Blue-hNOD2 cells, NOD2 ligand stimulation, SEAP reporter, read-out: hNOD2 IC50): 8.77

SMILES: [2H]C([2H])([2H])C(n1cc(NC(=O)Cc2cc(C)c(Oc3ccnc4cc(F)c(C(=O)NC)cc34)c(F)c2)cn1)(C([2H])([2H])[2H])C([2H])([2H])[2H] [Compound 601, 7-fluoro-4-(2-fluoro-6-methyl-4-(2-((1-(2-(methyl-d3)propan-2-yl-1,1,1,3,3,3-d6)-1H-pyrazol-4-yl)amino)-2-oxoethyl)phenoxy)-N-methylquinoline-6-carboxamide]
- pIC50 (RIPK2 enzyme): > 8.60
- pIC50 (human NOD2 signaling; [2]): 8.85

SMILES: Cc1cc(CC(=O)Nc2cnn(C(C)(C)C)c2)cc(F)c1Oc1ccnc2cc(Cl)c(C(N)=O)cc12 [Compound 602, 4-(4-(2-((1-(tert-butyl)-1H-pyrazol-4-yl)amino)-2-oxoethyl)-2-fluoro-6-methylphenoxy)-7-chloroquinoline-6-carboxamide]
- pIC50 (RIPK2 enzyme): > 8.60
- pIC50 (human NOD2 signaling; [2]): 8.10

SMILES: Cc1cc(CC(=O)Nc2cnn(C(C)(C)C)c2)ccc1Oc1ccnc2ccc(C3(C(N)=O)CC3)cc12 [Compound 603, 1-(4-(4-(2-((1-(tert-butyl)-1H-pyrazol-4-yl)amino)-2-oxoethyl)-2-methylphenoxy)quinolin-6-yl)cyclopropane-1-carboxamide]
- pIC50 (RIPK2 enzyme): > 8.60
- pIC50 (human NOD2 signaling; [2]): 8.60

SMILES: Cc1cc(CC(=O)Nc2cnn(C(C)(C)C)c2)ccc1Oc1ccnc2ccc(C3(C(N)=O)CCC3)cc12 [Compound 604, 1-(4-(4-(2-((1-(tert-butyl)-1H-pyrazol-4-yl)amino)-2-oxoethyl)-2-methylphenoxy)quinolin-6-yl)cyclobutane-1-carboxamide]
- pIC50 (RIPK2 enzyme): > 8.60
- pIC50 (human NOD2 signaling; [2]): 7.91

SMILES: Cc1cc(CC(=O)Nc2cnn(C(C)(C)C)c2)ccc1Oc1ccnc2ccc(C3(S(C)(=O)=O)CC3)cc12 [Compound 605, N-(1-(tert-butyl)-1H-pyrazol-4-yl)-2-(3-methyl-4-((6-(1-(methylsulfonyl)cyclopropyl)quinolin-4-yl)oxy)phenyl)acetamide]
- pIC50 (RIPK2 enzyme): > 8.60
- pIC50 (human NOD2 signaling; [2]): 7.81

SMILES: Cc1c(Oc2ccnc3ccc(C4(C(N)=O)CCC4)cc23)cc(F)c(CC(=O)Nc2cnn(C(C)(C)C)c2)c1F [Compound 606, 1-(4-(4-(2-((1-(tert-butyl)-1H-pyrazol-4-yl)amino)-2-oxoethyl)-3,5-difluoro-2-methylphenoxy)quinolin-6-yl)cyclobutane-1-carboxamide]
- pIC50 (RIPK2 enzyme): 8.42
- pIC50 (human NOD2 signaling; [2]): 9.10

SMILES: Cc1c(Oc2ccnc3ccc(C4(S(C)(=O)=O)CC4)cc23)cc(F)c(CC(=O)Nc2cnn(C(C)(C)C)c2)c1F [Compound 607, N-(1-(tert-butyl)-1H-pyrazol-4-yl)-2-(2,6-difluoro-3-methyl-4-((6-(1-(methylsulfonyl)cyclopropyl)quinolin-4-yl)oxy)phenyl)acetamide]
- pIC50 (RIPK2 enzyme): 8.46
- pIC50 (human NOD2 signaling; [2]): 8.21

SMILES: [2H]C([2H])([2H])C(n1cc(NC(=O)Cc2cc(C)c(Oc3ccnc4cc(F)c(C(N)=O)cc34)c(F)c2)cn1)(C([2H])([2H])[2H])C([2H])([2H])[2H] [Compound 608, 7-fluoro-4-(2-fluoro-6-methyl-4-(2-((1-(2-(methyl-d3)propan-2-yl-1,1,1,3,3,3-d6)-1H-pyrazol-4-yl)amino)-2-oxoethyl)phenoxy) quinoline-6-carboxamide]
- pIC50 (RIPK2 enzyme): 8.60
- pIC50 (human NOD2 signaling; [2]): 8.80

SMILES: Cc1c(Oc2ccnc3cc(F)c(C(N)=O)cc23)ccc(CC(=O)Nc2cnn(C(C)(C)C)c2)c1C#N [Compound 610, 4-(4-(2-((1-(tert-butyl)-1H-pyrazol-4-yl)amino)-2-oxoethyl)-3-cyano-2-methylphenoxy)-7-fluoroquinoline-6-carboxamide]
- pIC50 (RIPK2 enzyme): > 8.60
- pIC50 (human NOD2 signaling; [2]): 8.68

SMILES: CNC(=O)c1cc2c(Oc3ccc(CC(=O)Nc4cnn(C(C)(C)C)c4)c(C#N)c3C)ccnc2cc1F [Compound 611, 4-(4-(2-((1-(tert-butyl)-1H-pyrazol-4-yl)amino)-2-oxoethyl)-3-cyano-2-methylphenoxy)-7-fluoro-N-methylquinoline-6-carboxamide]
- pIC50 (RIPK2 enzyme): > 8.60
- pIC50 (human NOD2 signaling; [2]): 9.05

SMILES: Cc1nc(CC(=O)Nc2cnn(C(C)(C)C)c2)ccc1Oc1ccnc2cc(F)c(C(N)=O)cc12 [Compound 612, 4-((6-(2-((1-(tert-butyl)-1H-pyrazol-4-yl)amino)-2-oxoethyl)-2-methylpyridin-3-yl)oxy)-7-fluoroquinoline-6-carboxamide]
- pIC50 (RIPK2 enzyme): > 8.60
- pIC50 (human NOD2 signaling; [2]): 8.44

SMILES: CNC(=O)c1cc2c(Oc3ccc(CC(=O)Nc4cnn(C(C)(C)C)c4)nc3C)ccnc2cc1F [Compound 613, 4-((6-(2-((1-(tert-butyl)-1H-pyrazol-4-yl)amino)-2-oxoethyl)-2-methylpyridin-3-yl)oxy)-7-fluoro-N-methylquinoline-6-carboxamide]
- pIC50 (RIPK2 enzyme): > 8.60
- pIC50 (human NOD2 signaling; [2]): 8.34

SMILES: [2H]C([2H])([2H])NC(=O)c1cc2c(Oc3ccc(CC(=O)Nc4cnn(C(C)(C)C)c4)nc3C)ccnc2cc1F [Compound 614, 4-((6-(2-((1-(tert-butyl)-1H-pyrazol-4-yl)amino)-2-oxoethyl)-2-methylpyridin-3-yl)oxy)-7-fluoro-N-(methyl-d3)quinoline-6-carboxamide]
- pIC50 (RIPK2 enzyme): > 8.60
- pIC50 (human NOD2 signaling; [2]): 8.43

SMILES: Cc1cc(CC(=O)Nc2cc(C(C)(C)C)[nH]n2)cc(F)c1Oc1ccnc2cc(F)c(C(N)=O)cc12 [Compound 617, 4-(4-(2-((5-(tert-butyl)-1H-pyrazol-3-yl)amino)-2-oxoethyl)-2-fluoro-6-methylphenoxy)-7-fluoroquinoline-6-carboxamide]
- pIC50 (RIPK2 enzyme): > 8.60
- pIC50 (human NOD2 signaling; [2]): 8.96

SMILES: Cc1cc(CC(=O)Nc2cc(C(C)(C)C)[nH]n2)cc(C)c1Oc1ccnc2cc(F)c(C(N)=O)cc12 [Compound 618, 4-(4-(2-((5-(tert-butyl)-1H-pyrazol-3-yl)amino)-2-oxoethyl)-2,6-dimethylphenoxy)-7-fluoroquinoline-6-carboxamide]
- pIC50 (RIPK2 enzyme): > 8.60
- pIC50 (human NOD2 signaling; [2]): 9.52

SMILES: CC(C)(C)c1cc(NC(=O)Cc2ccc(Oc3ccnc4cc(F)c(C(N)=O)cc34)c(C(F)F)c2)n[nH]1 [Compound 619, 4-(4-(2-((5-(tert-butyl)-1H-pyrazol-3-yl)amino)-2-oxoethyl)-2-(difluoromethyl)phenoxy)-7-fluoroquinoline-6-carboxamide]
- pIC50 (RIPK2 enzyme): > 8.60
- pIC50 (human NOD2 signaling; [2]): 8.85

SMILES: [2H]C([2H])([2H])C(n1cc(NC(=O)Cc2cc(C)c(Oc3ccnc4ccc(C(=O)NC)cc34)cc2F)cn1)(C([2H])([2H])[2H])C([2H])([2H])[2H] [Compound 622, 4-(5-fluoro-2-methyl-4-(2-((1-(2-(methyl-d3)propan-2-yl-1,1,1,3,3,3-d6)-1H-pyrazol-4-yl)amino)-2-oxoethyl)phenoxy)-N-methylquinoline-6-carboxamide]
- pIC50 (RIPK2 enzyme): > 8.60
- pIC50 (human NOD2 signaling; [2]): 8.70

SMILES: CC(C)(C)S(=O)(=O)c1cc2c(Nc3ccc4scnc4c3)ncnc2cc1OCCOP(=O)(O)O [GSK 2983559, reference compound]
- inhibition of the RIPK2 and XIAP protein-protein interaction ([1]; NanoBRET): no inhibition
- pIC50 (human NOD2 signaling; Homo sapiens, HEK-Blue hNOD2, 24 h, HEK-Blue-hNOD2 cells, L18-MDP 0.5 ng/mL, 24 h, read-out: hNOD2 inhibition IC50): < 5.00
